Holding throughout (assay): DTP human tumour cell line panel, 48 h
Assay [1] concerns NCI-H23 lung.
In assay [2] the test system is KM12 colon.
Assay [3] has as its system SK-MEL-5 melanoma.
For assay [4], the system named is TK-10 renal.
For assay [5], the system named is IGROV1 ovarian.
Assay [6] has as its system EKVX NSCLC.
Assay [7] has as its system DU-145 prostate.
The test system of assay [8] is SF-539 CNS.
The test system of assay [9] is MALME-3M melanoma.
Assay [10] relates to K-562 leukemia.

The structures appear in SMILES notation.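 Five concentrations, 48 hours, 96-well plates. GI50 is the concentration that inhibits growth by half. TGI denotes the concentration required for complete inhibition of growth.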

Consider `C=CCCCc1ccc(C(O)CCCCCCCCCCCC)o1` (stereo not drawn), for which the GI50 is 22.3 µM in assay [1]; 21.3 µM in assay [2]; 18.5 µM in assay [3]; 21 µM in assay [4]; 19.5 µM in [5]; 20.1 µM in [6]. In addition, the GI50 in assay [7] is 19 µM; in [8] it was 22.1 µM; in assay [9], 26 µM; in assay [10] it was 24.5 µM. In addition, the concentration for total growth inhibition (TGI) was 52.5 µM in assay [1]; 46 µM in [2]; 37.2 µM in assay [3]; 38.3 µM in [4]; 44.9 µM in assay [5]; 37.5 µM in assay [6]. Further, the total growth inhibition concentration (TGI) was 35.4 µM in [7], 40.6 µM in assay [8], 72.1 µM in [9] and over 100 µM in [10].
`CCN(CC)CCOc1ccc(C(=O)/C=C\c2ccc(Cl)cc2Cl)cc1`: the GI50 in assay [1] was 7.15 µM; in assay [2] it was 1.92 µM; in [3], 3.14 µM; in assay [4], 15.6 µM; in assay [5] it was 4.63 µM; in assay [6] it was 12.6 µM. In addition, the GI50 in assay [7] was 10.3 µM; in [8], 4.05 µM; in [9] it was 3.41 µM; in assay [10] it was 2.41 µM. The TGI turned out to be 22.1 µM in assay [1]; 4.16 µM in assay [2]; 12.3 µM in [3]; 29.2 µM in assay [4]; 22.4 µM in [5]; 25.1 µM in assay [6]. In addition, the concentration for total growth inhibition (TGI) is 22 µM in [7], 16.4 µM in assay [8], 15.3 µM in assay [9] and 9.13 µM in [10].
Take `CN(C)CCN1C(=O)c2cccc3cccc(c23)C1=O`: the GI50 is over 25 µM in [1]; 12.9 µM in [2]; 18.4 µM in [3]; 12.3 µM in [4]; over 25 µM in assay [6]; 12.4 µM in assay [7]. In addition, the figures for the GI50 in assay [8], in [9] and in [10] were 15.6 µM, 17.6 µM and 9.68 µM, respectively. For the same compound, the TGI in [1], in assay [2], in [3], in [4], in assay [6] and in assay [7] was over 25 µM throughout. For the same compound, the TGI in [8], in [9] and in [10] was over 25 µM in each case.
With `O=C1NCCS(=O)(=O)/C1=C\C=C\c1cccc(C(F)(F)F)c1`, the GI50 in assay [1] was 1.94 µM; in assay [2], 2.36 µM; in assay [3] it was 1.71 µM; in assay [4], 3.95 µM; in assay [5] it was 2.61 µM; in assay [6], 4.31 µM. For the same compound, the GI50 in assay [7] was 2.96 µM; in assay [8], 2.83 µM; in assay [9] it was 4.02 µM; in [10], 2.48 µM. The TGI came to 8.02 µM in [1]; 6.67 µM in assay [2]; 3.36 µM in assay [3]; 13 µM in assay [4]; 11.8 µM in [5]; 16.5 µM in assay [6]. Besides, the total growth inhibition concentration (TGI) in [7] is 13.6 µM; in assay [8] it was 10.1 µM; in assay [9], 17.2 µM; in [10] it was 25.7 µM.
Regarding `CC1=C(/C=C/C(C)=C/C=C/C(C)=C/CO)C(C)(C)CCC1`, the total growth inhibition concentration (TGI) in assay [1] was 54.8 µM; in assay [2] it was over 100 µM; in [3] it was 32 µM; in assay [5], 57.7 µM; in assay [6] it was over 100 µM; in assay [7] it was over 100 µM. In addition, the total growth inhibition concentration (TGI) in assay [8] is 34.3 µM; in assay [9] it was 29.1 µM; in assay [10], over 100 µM.
As to `Cc1cccc(Nc2cnc(N)nc2N)c1`, the TGI in assay [1], in [2], in assay [3], in assay [4], in assay [5] and in assay [6] was over 100 µM in each case. Besides, the total growth inhibition concentration (TGI) in assay [7], in assay [8], in assay [9] and in [10] was over 100 µM throughout.
For the compound `O=C1OC(CN2CCOCC2)CN1/N=C/c1ccc([N+](=O)[O-])o1` (stereo not drawn), the TGI was 53.9 µM in assay [1]; 45.8 µM in assay [2]; 63 µM in [3]; over 100 µM in assay [4]; 84.8 µM in assay [5]; over 100 µM in assay [6]. Further, the TGI in [7] was over 100 µM; in assay [8], over 100 µM; in [9], 46.6 µM; in assay [10], over 100 µM.
Take `CNC(=O)OCC1C2=C(C(=O)C(C)=C(N)C2=O)N2CC3C(N3C)C12OC` (stereo not drawn): the TGI in assay [1] is 16.3 µM; in [3] it was 23.8 µM; in [4], over 100 µM; in assay [5] it was 26.1 µM; in assay [6], over 100 µM; in [7], 55 µM. Also, the total growth inhibition concentration (TGI) in assay [8] is 87.5 µM; in [9], 18.5 µM; in [10], over 100 µM.
On to `COc1cc(/C=C/C(=O)c2cccnc2Nc2ccc(F)cc2)cc(OC)c1OC`, for which the GI50 in assay [1] is 2.34 µM; in assay [2], 3.72 µM; in [3], 2.51 µM; in assay [4], 3.52 µM; in assay [5], 7.42 µM; in assay [6], 3.94 µM. Further, the GI50 is 3.32 µM in [7], 2.85 µM in [8] and 6.9 µM in [9]. Also, the TGI in assay [1] is 7.77 µM; in assay [2], 17.6 µM; in assay [3], 8.24 µM; in assay [4], 9.5 µM; in [5], 50.3 µM; in assay [6] it was over 100 µM. The TGI in [7] amounted to 12.4 µM; in assay [8] it was 7.29 µM; in assay [9], 48.9 µM.
As for `Cc1cc2c(cc1N)C(C)C1(CCC(=O)N2Cc2ccccc2)OCCO1` (stereo not drawn), the TGI in assay [1], in [2], in assay [3], in [4], in [5] and in [6] was over 100 µM throughout. Also, the TGI in [7], in assay [8] and in assay [9] was over 100 µM each time.

The values above are taken from PubChem BioAssay (NCI).
